Test results taken from patent publication US20230141965A1, “TREATMENT OF INFECTIOUS DISEASES” (Durect Corporation, priority 2020, published 2023).

Tests used:
C57BL/6J mice = assay: Acute organ injury in mice challenged with lipopolysaccharide (LPS); type: in vivo; settings: for health of kidney, lung, and liver tissues (sections stained with hematoxylin and eosin, light microscope): C57BL/6J mice, 50 mg/kg i.p. two hours before i.v. LPS 5 mg/kg, tissues collected at day 3, FIG. 1
Procedure: C57BL/6J mice, 21 week old, received an i.p. injection of 25HC3S sodium salt (50 mg/kg) or vehicle. Two hours later, mice were challenged with an intravenous injection of lipopolysaccharide (LPS) at 5 mg/kg. For vehicle-treated mice, the tissues, liver, lung, and kidney, were collected right before when animals met all criteria to be sacrificed. For mice treated with 25HC3S sodium salt, tissues were collected at the day 3, when 80% of vehicle-treated mice died. The tissue sections were stained with hematoxylin and eosin, examined under light microscope with magnification x 100.

mice = assay: Acute organ injury in mice given acetaminophen (APAP) injection; type: in vivo; settings: for kidney, lung, and liver tissues: mice, 25 mg/kg with APAP injection (600 mg/kg APAP for 24hr), FIG. 2
Procedure: Normal: normal mice without treatment; Control: mice with 10% glucose and acetaminophen (APAP) injection (600 mg/kg APAP for 24hr); PG: mice with vehicle and APAP injection (600 mg/kg APAP for 24hr); PG+25HC3S: mice with 25HC3S (25 mg/kg) and APAP injection.

Row | SMILES | health of kidney, lung, and liver tissues (sections stained with hematoxylin and eosin, light microscope) (C57BL/6J mice; listed as 25HCS) | protection of mice from lipopolysaccharide (LPS) (C57BL/6J mice; FIG. 1 legend, LPS 5 mg/kg i.v.) | protection of mice from acetaminophen (mice; FIG. 2 legend, 600 mg/kg APAP) | kidney, lung, and liver tissues (mice) | health of kidney, lung, and liver tissues (sections stained with hematoxylin and eosin, light microscope) (C57BL/6J mice)
1 | C[C@H](CCCC(C)(C)O)[C@H]1CC[C@H]2[C@@H]3CC=C4C[C@@H](OS(=O)(=O)[O-])CC[C@]4(C)[C@H]3CC[C@]12C.[Na+] [25HC3S, 5-cholesten-3, 25-diol, 3-sulfate] | improved kidney, lung, and liver tissues | protected mice from lipopolysaccharide (LPS) | protected mice from acetaminophen | improved kidney, lung, and liver tissues | 
2 | C[C@H](CCCC(C)(C)O)[C@H]1CC[C@H]2[C@@H]3CC=C4CC(OS(=O)(=O)[O-])CC[C@]4(C)[C@H]3CC[C@]12C.[Na+] (stereo partly drawn) [25HC3S sodium salt, 5-cholesten-3, 25-diol, 3-sulfate] |  |  |  | improved kidney, lung, and liver tissues | improved the health of kidney, lung, and liver tissues
